# Results published in USRE40086E1, “Method for treating bacterial infection with novel 7-substituted-9-substituted amino 6-demethyl-6-deoxytetracyclines” (Wyeth Holdings Corporation, priority 1991, dated 2008).
# Columns and labels:
# S. mariescens FDOR 8733 = assay: MIC, agar dilution (Table IA); type: cell-based; settings: unit assumed
# [1] = test system: Ps. acruginosa ATCC 27853; assay: MIC, agar dilution (Table IA); type: cell-based; settings: unit assumed
# [2] = test system: S. aureus UBMS 90-3 (Sensitive); assay: MIC, agar dilution; type: cell-based; settings: S. aureus UBMS 90-3; Table IA; unit assumed
# [3] = test system: S. haemolyticus AVAH 88-3; assay: MIC, agar dilution; type: cell-based; settings: S. hemolyticus AVHAH 88-3; Table IA; unit assumed
# [4] = test system: S. aureus UBMS 90-2 (tetM); assay: MIC, agar dilution; type: cell-based; settings: S. aureus UBMS 90-2 TetM; Table IA; unit assumed
# E. coli #311 (MP) = assay: MIC, agar dilution (Table IA); type: cell-based; settings: unit assumed
# S. aureus NEMC 8769/89-4 = assay: MIC, agar dilution (Table IA); type: cell-based; settings: unit assumed
# E. coli UBMS 90-4 (tetM) = assay: MIC, agar dilution; type: cell-based; settings: E. coli UBMS 90-4 TetM; Table IA; unit assumed
# E. coli UBMS 90-5 = assay: MIC, agar dilution (Table IA); type: cell-based; settings: unit assumed
# [5] = test system: S. aureus UBMS 88-5 (tetM); assay: MIC, agar dilution; type: cell-based; settings: S. aureus UBMS 88-5 TetM; Table IA; unit assumed
# E. coli PRP1 TetA = assay: MIC, agar dilution (Table IA); type: cell-based; settings: unit assumed
# [6] = test system: S. aureus UBMS 90-1 (tetM); assay: MIC, agar dilution; type: cell-based; settings: S. aureus UBMS 90-1 TetM; Table IA; unit assumed
# E. coli MC4100 TetB = assay: MIC, agar dilution (Table IA); type: cell-based; settings: unit assumed
# E. coli J2175 = assay: MIC, agar dilution (Table IA); type: cell-based; settings: unit assumed
# E. faecalis ATCC 29212 = assay: MIC, agar dilution; type: cell-based; settings: E. faecalis ATCC 29212; Table IA; unit assumed
# E. coli ATCC 25922 = assay: MIC, agar dilution; type: cell-based; settings: E. coli ATCC 25922; Table IA; unit assumed
# E. coli J3272 TetC = assay: MIC, agar dilution (Table IA); type: cell-based; settings: unit assumed
# [7] = test system: X. maltophilia NEMC 87210; assay: MIC, agar dilution (Table IA); type: cell-based; settings: unit assumed
# E. coli UBMS 88-1 (tetB) = assay: MIC, agar dilution; type: cell-based; settings: E. coli UBMS 88-1 TetB; Table IA; unit assumed
# E. coli MC4100 Tet sens. = assay: MIC, agar dilution (Table IA); type: cell-based; settings: unit assumed
# S. aureus SMITH (sens) = assay: In vivo antibacterial evaluation, acute lethal infection in mice; settings: Oral
# Source text: In Vivo Antibacterial Evaluation (Table VII)
# E. coli UBMS 89-1 (tetM) = assay: MIC, agar dilution; type: cell-based; settings: E. coli UBMS 89-1 TetM; Table IA; unit assumed
# [8] = test system: S. aureus IVES 1983 (meth. resistant); assay: MIC, agar dilution; type: cell-based; settings: S. aureus IVES 1983; Table IA; unit assumed
# E. coli J3272 TetD = assay: MIC, agar dilution (Table IA); type: cell-based; settings: unit assumed
# [9] = test system: S. aureus UBMS 88-7 (tetK); assay: MIC, agar dilution; type: cell-based; settings: S. aureus UBMS 88-7 TetK; Table IA; unit assumed
# E. coli BAJ9003 = assay: MIC, agar dilution (Table IA); type: cell-based; settings: unit assumed
# [10] = test system: S. aureus IVES 2943 (meth. resistant); assay: MIC, agar dilution; type: cell-based; settings: S. aureus IVES 2943; Table IA; unit assumed
# S. aureus ROSE (MP) = assay: MIC, agar dilution (Table IA); type: cell-based; settings: unit assumed
# [11] = test system: E. coli UBMS 89-2 (Sensitive); assay: MIC, agar dilution; type: cell-based; settings: E. coli UBMS 89-2 Tet Sens.; Table IA; unit assumed
# [12] = test system: S. aureus UBMS 88-4 (Sensitive); assay: MIC, agar dilution; type: cell-based; settings: S. aureus UBMS 88-4; Table IA; unit assumed
# [13] = test system: S. aureus ATCC 29213 (Sensitive); assay: MIC, agar dilution; type: cell-based; settings: S. aureus ATCC 29213; Table IA; unit assumed
# E. faecalis 12201 = assay: MIC, agar dilution; type: cell-based; settings: Enterococcus 12201; Table IA; unit assumed
# [14] = test system: S. aureus Smith (Sensitive); assay: MIC, agar dilution; type: cell-based; settings: S. aureus SMITH (MP); Table IA; unit assumed
# E. coli J3272 Tet sens. = assay: MIC, agar dilution (Table IA); type: cell-based; settings: unit assumed
Structure (SMILES),Antibacterial activity (MIC) (S. mariescens FDOR 8733),Antibacterial activity (MIC) [1],Antibacterial activity (MIC) [2],Antibacterial activity (MIC) [3],Antibacterial activity (MIC) [4],Antibacterial activity (MIC) (E. coli #311 (MP)),Antibacterial activity (MIC) (S. aureus NEMC 8769/89-4),Antibacterial activity (MIC) (E. coli UBMS 90-4 (tetM)),Antibacterial activity (MIC) (E. coli UBMS 90-5),Antibacterial activity (MIC) [5],Antibacterial activity (MIC) (E. coli PRP1 TetA),Antibacterial activity (MIC) [6],Antibacterial activity (MIC) (E. coli MC4100 TetB),Antibacterial activity (MIC) (E. coli J2175),Antibacterial activity (MIC) (E. faecalis ATCC 29212),Antibacterial activity (MIC) (E. coli ATCC 25922),Antibacterial activity (MIC) (E. coli J3272 TetC),Antibacterial activity (MIC) [7],Antibacterial activity (MIC) (E. coli UBMS 88-1 (tetB)),Antibacterial activity (MIC) (E. coli MC4100 Tet sens.),also measured
"CC(C(=O)Nc1cc(N(C)C)c2c(c1O)C(=O)C1=C(O)C3(O)C(=O)C(C(N)=O)=C(O)C(N(C)C)C3CC1C2)N1CCCC1.Cl.Cl (stereo not drawn) [AAA, [7S-(7alpha,10aalpha)]-N-[9-(Aminocarbonyl)-4,7-bis(dimethylamino)-5,5a,6,6a,7,10,10a,12-octahydro-1,8,10a,11-tetrahydroxy-10,12-dioxo-2-naphthacenyl)-alpha-methyl-1-pyrrolidineacetamide dihydrochloride]",4 µg/mL,> 32 µg/mL,0.25 µg/mL,0.5 µg/mL,0.25 µg/mL,0.25 µg/mL,0.12 µg/mL,0.5 µg/mL,0.5 µg/mL,0.25 µg/mL,0.5 µg/mL,0.5 µg/mL,0.5 µg/mL,0.5 µg/mL,0.12 µg/mL,0.25 µg/mL,0.5 µg/mL,0.5 µg/mL,0.5 µg/mL,0.12 µg/mL,ED50 (S. aureus SMITH (sens)): >16 mg/kg; Antibacterial activity (MIC) (E. coli UBMS 89-1 (tetM)): 0.12 µg/mL; Antibacterial activity (MIC) [8]: 0.5 µg/mL; Antibacterial activity (MIC) (E. coli J3272 TetD): 0.12 µg/mL; Antibacterial activity (MIC) [9]: 0.5 µg/mL; Antibacterial activity (MIC) (E. coli BAJ9003): 0.06 µg/mL; Antibacterial activity (MIC) [10]: 0.5 µg/mL; Antibacterial activity (MIC) (S. aureus ROSE (MP)): 2 µg/mL; Antibacterial activity (MIC) [11]: 0.5 µg/mL; Antibacterial activity (MIC) [12]: 0.25 µg/mL; Antibacterial activity (MIC) [13]: 0.25 µg/mL; Antibacterial activity (MIC) (E. faecalis 12201): 0.12 µg/mL; Antibacterial activity (MIC) [14]: 0.25 µg/mL
CN(C)c1cc(NC(=O)CNCC(=O)O)c(O)c2c1CC1CC3C(N(C)C)C(O)=C(C(N)=O)C(=O)C3(O)C(O)=C1C2=O (centres unmarked) [KKK],> 32 µg/mL,> 32 µg/mL,16 µg/mL,> 32 µg/mL,32 µg/mL,> 32 µg/mL,32 µg/mL,> 32 µg/mL,> 32 µg/mL,> 32 µg/mL,> 32 µg/mL,> 32 µg/mL,> 32 µg/mL,> 32 µg/mL,16 µg/mL,> 32 µg/mL,> 32 µg/mL,> 32 µg/mL,> 32 µg/mL,32 µg/mL,Antibacterial activity (MIC) (E. coli J3272 Tet sens.): > 32 µg/mL; Antibacterial activity (MIC) (E. coli UBMS 89-1 (tetM)): > 32 µg/mL; Antibacterial activity (MIC) [8]: > 32 µg/mL; Antibacterial activity (MIC) (E. coli J3272 TetD): > 32 µg/mL; Antibacterial activity (MIC) [9]: > 32 µg/mL; Antibacterial activity (MIC) (E. coli BAJ9003): 16 µg/mL; Antibacterial activity (MIC) [10]: > 32 µg/mL; Antibacterial activity (MIC) (S. aureus ROSE (MP)): > 32 µg/mL; Antibacterial activity (MIC) [11]: > 32 µg/mL; Antibacterial activity (MIC) [12]: 32 µg/mL; Antibacterial activity (MIC) [13]: 32 µg/mL; Antibacterial activity (MIC) (E. faecalis 12201): > 32 µg/mL; Antibacterial activity (MIC) [14]: 16 µg/mL
"CN(C)CCCC(=O)Nc1cc(N(C)C)c2c(c1O)C(=O)C1=C(O)[C@]3(O)C(=O)C(C(N)=O)=C(O)[C@@H](N(C)C)C3CC1C2.Cl.Cl (stereo partly drawn) [ZZ, [4S-(4alpha,12aalpha)]-4,7-Bis(dimethylamino)-9-[[4-(dimethylamino)-1-oxobutyl]amino]-1,4,4a,5,5a,6,11,12a-octahydro-3,10,12,12a-tetrahydroxy-1,11-dioxo-2-naphthacenecarboxamide dihydrochloride]",> 32 µg/mL,> 32 µg/mL,2 µg/mL,8 µg/mL,4 µg/mL,16 µg/mL,1 µg/mL,16 µg/mL,16 µg/mL,8 µg/mL,> 32 µg/mL,8 µg/mL,> 32 µg/mL,16 µg/mL,4 µg/mL,8 µg/mL,32 µg/mL,32 µg/mL,> 32 µg/mL,2 µg/mL,Antibacterial activity (MIC) (E. coli UBMS 89-1 (tetM)): 32 µg/mL; Antibacterial activity (MIC) [8]: > 32 µg/mL; Antibacterial activity (MIC) (E. coli J3272 TetD): 4 µg/mL; Antibacterial activity (MIC) [9]: 16 µg/mL; Antibacterial activity (MIC) (E. coli BAJ9003): 1 µg/mL; Antibacterial activity (MIC) [10]: > 32 µg/mL; Antibacterial activity (MIC) (S. aureus ROSE (MP)): > 32 µg/mL; Antibacterial activity (MIC) [11]: 16 µg/mL; Antibacterial activity (MIC) [12]: 2 µg/mL; Antibacterial activity (MIC) [13]: 2 µg/mL; Antibacterial activity (MIC) (E. faecalis 12201): 8 µg/mL; Antibacterial activity (MIC) [14]: 2 µg/mL
